From US9487749B2 (priority 2009, dated 2016)

Columns and labels:
[1] = test system: E. coli; test: E. coli log growth in MSM-lactose broth with or without DMSO; format: cell-based, Escherichia coli
Protocol: Lactose broth, free of both NaCl and of proteins, was used as the media in this experiment. […] Each media composition was initially inoculated with 6.75×10^6 cfu/mL of E. coli. Cultures were incubated at 25° C. for seven days. Aliquots of each culture were taken after 24 hours of culturing and at the end of seven days in culture. Aliquots were serially diluted (with Modified Letheen diluent) and plated on trypto-soy agar plates.

[2] = test system: Chlorella minutissima; test: Algal growth with MSM by percent transmittance; format: cell-based
Protocol: (§1) Two species of Chlorella were examined for growth—Chlorella sorokiniana a freshwater species and Chlorella minutissima a marine species. […] Growth was measured on day 0, 1, 2, 3, 4, 5, 6, 7, 8, 9 and 10. […] The following media were purchased from UTEX Culture Collection of Algae: Enriched Salt Water Medium and Volvox Dextrose Medium.
(§2) The algae were grown for 48 hours in the appropriate medium. The initial suspension was enumerated for each alga and is referred to as the starting inoculums. Chlorella sorokiniana was at 381 million cells per milliliter and Chlorella minutissima was at 19 million cells per milliliter. One milliliter of the algal solution was placed into 9 mLs of medium and mixed by vortexing. […] The tube of algae and MSM were incubated at room temperature with exposure to sunlight. […] Each dilution of MSM for each organism was set up in and analyzed in triplicate for each time interval measured. The samples were measured by percent transmittance on a UV/VIS spectrophotometer at wavelength 750 nm. The medium stock was tested for percent transmittance background levels at every time interval were measured. The lower percent transmittance indicated a higher growth factor.

[3] = test system: Chlorella sorokiniana; test: Algal growth with MSM by percent transmittance; format: cell-based
Protocol: as §1, §2

CS(C)(=O)=O [MSM, Methylsulfonylmethane]
reduction of bacterial growth ([1]; 11% MSM, 24 hours (maximum)): about 2.2 logs | reduction of bacterial growth ([1]; 16% MSM, 24 hours): about 1 log | percent transmittance ([2]; MSM Percentage 0.5, day 0, 750 nm): 93.5% | percent transmittance ([2]; MSM Percentage 0.5, day 1, 750 nm): 70.1% | percent transmittance ([2]; MSM Percentage 0.5, day 2, 750 nm): 45.4% | percent transmittance ([2]; MSM Percentage 0.5, day 3, 750 nm): 32.1% | percent transmittance ([2]; MSM Percentage 0.5, day 4, 750 nm): 27.6% | percent transmittance ([2]; MSM Percentage 0.5, day 5, 750 nm): 26.6% | percent transmittance ([2]; MSM Percentage 0.5, day 6, 750 nm): 25.1% | percent transmittance ([2]; MSM Percentage 0.5, day 7, 750 nm): 23.6% | percent transmittance ([2]; MSM Percentage 0.5, day 8, 750 nm): 22.8% | percent transmittance ([2]; MSM Percentage 0.5, day 9, 750 nm): 20.4% | percent transmittance ([2]; MSM Percentage 0.5, day 10, 750 nm): 18.9% | percent transmittance ([2]; MSM Percentage 1.0, day 0, 750 nm): 91.1% | percent transmittance ([2]; MSM Percentage 1.0, day 1, 750 nm): 80.5% | percent transmittance ([2]; MSM Percentage 1.0, day 2, 750 nm): 40.0% | percent transmittance ([2]; MSM Percentage 1.0, day 3, 750 nm): 31.0% | percent transmittance ([2]; MSM Percentage 1.0, day 4, 750 nm): 27.9% | percent transmittance ([2]; MSM Percentage 1.0, day 5, 750 nm): 26.5% | percent transmittance ([2]; MSM Percentage 1.0, day 6, 750 nm): 25.4% | percent transmittance ([2]; MSM Percentage 1.0, day 7, 750 nm): 24.4% | percent transmittance ([2]; MSM Percentage 1.0, day 8, 750 nm): 23.7% | percent transmittance ([2]; MSM Percentage 1.0, day 9, 750 nm): 21.0% | percent transmittance ([2]; MSM Percentage 1.0, day 10, 750 nm): 19.4% | percent transmittance ([2]; MSM Percentage 2.5, day 0, 750 nm): 82.8% | percent transmittance ([2]; MSM Percentage 2.5, day 1, 750 nm): 75.1% | percent transmittance ([2]; MSM Percentage 2.5, day 2, 750 nm): 59.5% | percent transmittance ([2]; MSM Percentage 2.5, day 3, 750 nm): 45.4% | percent transmittance ([2]; MSM Percentage 2.5, day 4, 750 nm): 33.6% | percent transmittance ([2]; MSM Percentage 2.5, day 5, 750 nm): 32.4% | percent transmittance ([2]; MSM Percentage 2.5, day 6, 750 nm): 30.0% | percent transmittance ([2]; MSM Percentage 2.5, day 7, 750 nm): 28.6% | percent transmittance ([2]; MSM Percentage 2.5, day 8, 750 nm): 27.7% | percent transmittance ([2]; MSM Percentage 2.5, day 9, 750 nm): 23.3% | percent transmittance ([2]; MSM Percentage 2.5, day 10, 750 nm): 21.1% | percent transmittance ([2]; MSM Percentage 5.0, day 0, 750 nm): 68.9% | percent transmittance ([2]; MSM Percentage 5.0, day 1, 750 nm): 87.4% | percent transmittance ([2]; MSM Percentage 5.0, day 2, 750 nm): 76.5% | percent transmittance ([2]; MSM Percentage 5.0, day 3, 750 nm): 62.0% | percent transmittance ([2]; MSM Percentage 5.0, day 4, 750 nm): 52.9% | percent transmittance ([2]; MSM Percentage 5.0, day 5, 750 nm): 52.2% | percent transmittance ([2]; MSM Percentage 5.0, day 6, 750 nm): 50.7% | percent transmittance ([2]; MSM Percentage 5.0, day 7, 750 nm): 51.0% | percent transmittance ([2]; MSM Percentage 5.0, day 8, 750 nm): 51.9% | percent transmittance ([2]; MSM Percentage 5.0, day 9, 750 nm): 47.1% | percent transmittance ([2]; MSM Percentage 5.0, day 10, 750 nm): 44.1% | percent transmittance ([2]; MSM Percentage 10.0, day 0, 750 nm): 49.6% | percent transmittance ([2]; MSM Percentage 10.0, day 1, 750 nm): 49.2% | percent transmittance ([2]; MSM Percentage 10.0, day 2, 750 nm): 50.8% | percent transmittance ([2]; MSM Percentage 10.0, day 3, 750 nm): 51.9% | percent transmittance ([2]; MSM Percentage 10.0, day 4, 750 nm): 52.0% | percent transmittance ([2]; MSM Percentage 10.0, day 5, 750 nm): 51.9% | percent transmittance ([2]; MSM Percentage 10.0, day 6, 750 nm): 54.9% | percent transmittance ([2]; MSM Percentage 10.0, day 7, 750 nm): 56.1% | percent transmittance ([2]; MSM Percentage 10.0, day 8, 750 nm): 58.6% | percent transmittance ([2]; MSM Percentage 10.0, day 9, 750 nm): 41.4% | percent transmittance ([2]; MSM Percentage 10.0, day 10, 750 nm): 36.7% | percent transmittance ([2]; MSM Percentage 20.0, day 0, 750 nm): 30.0% | percent transmittance ([2]; MSM Percentage 20.0, day 1, 750 nm): 33.8% | percent transmittance ([2]; MSM Percentage 20.0, day 2, 750 nm): 51.1% | percent transmittance ([2]; MSM Percentage 20.0, day 3, 750 nm): 54.8% | percent transmittance ([2]; MSM Percentage 20.0, day 4, 750 nm): 57.3% | percent transmittance ([2]; MSM Percentage 20.0, day 5, 750 nm): 57.5% | percent transmittance ([2]; MSM Percentage 20.0, day 6, 750 nm): 57.4% | percent transmittance ([2]; MSM Percentage 20.0, day 7, 750 nm): 57.1% | percent transmittance ([2]; MSM Percentage 20.0, day 8, 750 nm): 55.8% | percent transmittance ([2]; MSM Percentage 20.0, day 9, 750 nm): 45.1% | percent transmittance ([2]; MSM Percentage 20.0, day 10, 750 nm): 30.2% | percent transmittance ([3]; MSM 0.5, day 0, 750 nm): 47.3% | percent transmittance ([3]; MSM 0.5, day 1, 750 nm): 41.8% | percent transmittance ([3]; MSM 0.5, day 2, 750 nm): 29.3% | percent transmittance ([3]; MSM 0.5, day 3, 750 nm): 29.6% | percent transmittance ([3]; MSM 0.5, day 4, 750 nm): 19.0% | percent transmittance ([3]; MSM 0.5, day 5, 750 nm): 12.4% | percent transmittance ([3]; MSM 0.5, day 6, 750 nm): 12.5% | percent transmittance ([3]; MSM 0.5, day 7, 750 nm): 11.9% | percent transmittance ([3]; MSM 0.5, day 8, 750 nm): 12.2% | percent transmittance ([3]; MSM 0.5, day 9, 750 nm): 7.5% | percent transmittance ([3]; MSM 0.5, day 10, 750 nm): 6.4% | percent transmittance ([3]; MSM 1, day 0, 750 nm): 48.7% | percent transmittance ([3]; MSM 1, day 1, 750 nm): 42.5% | percent transmittance ([3]; MSM 1, day 2, 750 nm): 37.5% | percent transmittance ([3]; MSM 1, day 3, 750 nm): 37.5% | percent transmittance ([3]; MSM 1, day 4, 750 nm): 17.3% | percent transmittance ([3]; MSM 1, day 5, 750 nm): 13.5% | percent transmittance ([3]; MSM 1, day 6, 750 nm): 13.0% | percent transmittance ([3]; MSM 1, day 7, 750 nm): 12.5% | percent transmittance ([3]; MSM 1, day 8, 750 nm): 12.4% | percent transmittance ([3]; MSM 1, day 9, 750 nm): 7.8% | percent transmittance ([3]; MSM 1, day 10, 750 nm): 6.6% | percent transmittance ([3]; MSM 2.5, day 0, 750 nm): 40.6% | percent transmittance ([3]; MSM 2.5, day 1, 750 nm): 43.1% | percent transmittance ([3]; MSM 2.5, day 2, 750 nm): 44.9% | percent transmittance ([3]; MSM 2.5, day 3, 750 nm): 43.8% | percent transmittance ([3]; MSM 2.5, day 4, 750 nm): 26.1% | percent transmittance ([3]; MSM 2.5, day 5, 750 nm): 10.3% | percent transmittance ([3]; MSM 2.5, day 6, 750 nm): 10.9% | percent transmittance ([3]; MSM 2.5, day 7, 750 nm): 11.0% | percent transmittance ([3]; MSM 2.5, day 8, 750 nm): 11.2% | percent transmittance ([3]; MSM 2.5, day 9, 750 nm): 8.4% | percent transmittance ([3]; MSM 2.5, day 10, 750 nm): 6.0% | percent transmittance ([3]; MSM 5, day 0, 750 nm): 35.6% | percent transmittance ([3]; MSM 5, day 1, 750 nm): 31.2% | percent transmittance ([3]; MSM 5, day 2, 750 nm): 27.4% | percent transmittance ([3]; MSM 5, day 3, 750 nm): 21.4% | percent transmittance ([3]; MSM 5, day 4, 750 nm): 18.2% | percent transmittance ([3]; MSM 5, day 5, 750 nm): 15.7% | percent transmittance ([3]; MSM 5, day 6, 750 nm): 15.9% | percent transmittance ([3]; MSM 5, day 7, 750 nm): 16.3% | percent transmittance ([3]; MSM 5, day 8, 750 nm): 17.0% | percent transmittance ([3]; MSM 5, day 9, 750 nm): 13.7% | percent transmittance ([3]; MSM 5, day 10, 750 nm): 12.8% | percent transmittance ([3]; MSM 10, day 0, 750 nm): 31.2% | percent transmittance ([3]; MSM 10, day 1, 750 nm): 31.3% | percent transmittance ([3]; MSM 10, day 2, 750 nm): 29.7% | percent transmittance ([3]; MSM 10, day 3, 750 nm): 28.4% | percent transmittance ([3]; MSM 10, day 4, 750 nm): 29.0% | percent transmittance ([3]; MSM 10, day 5, 750 nm): 28.7% | percent transmittance ([3]; MSM 10, day 6, 750 nm): 27.1% | percent transmittance ([3]; MSM 10, day 7, 750 nm): 27.6% | percent transmittance ([3]; MSM 10, day 8, 750 nm): 27.1% | percent transmittance ([3]; MSM 10, day 9, 750 nm): 76.4% | percent transmittance ([3]; MSM 10, day 10, 750 nm): 93.8% | percent transmittance ([3]; MSM 20, day 0, 750 nm): 19.3% | percent transmittance ([3]; MSM 20, day 1, 750 nm): 21.9% | percent transmittance ([3]; MSM 20, day 2, 750 nm): 24.1% | percent transmittance ([3]; MSM 20, day 3, 750 nm): 28.1% | percent transmittance ([3]; MSM 20, day 4, 750 nm): 31.4% | percent transmittance ([3]; MSM 20, day 5, 750 nm): 33.6% | percent transmittance ([3]; MSM 20, day 6, 750 nm): 36.8% | percent transmittance ([3]; MSM 20, day 7, 750 nm): 40.6% | percent transmittance ([3]; MSM 20, day 8, 750 nm): 40.8% | percent transmittance ([3]; MSM 20, day 9, 750 nm): 84.8% | percent transmittance ([3]; MSM 20, day 10, 750 nm): 96.7%
